Experimental data as given in patent publication US20230340417A1, “DEFINED MATRIX FOR THE DIFFERENTIATION OF ISLETS” (Washington University, priority 2022, published 2023).
“Also recorded” adds a separate entry of the source.

B1: vitronectin: extracellular matrix protein tested as plate coating for differentiation (protein, UniProt P04004 20-478, looked up)
Vitronectin: DQESCKGRCTEGFNVDKKCQCDELCSYYQSCCTDYTAECKPQVTRGDVFTMPEDEYTVYDDGEEKNNATVHEQVGGPSLTSDLQAQSKGNPEQTPVLKPEEEAPAPEVGASKPEGIDSRPETLHPGRPQPPAEEELCSGKPFDAFTDLKNGSLFAFRGQYCYELDEKAVRPGYPKLIRDVWGIEGPIDAAFTRINCQGKTYLFKGSQYWRFEDGVLDPDYPRNISDGFDGIPDNVDAALALPAHSYSGRERVYFFKGKQYWEYQFQHQPSQEECEGSSLSAVFEHFAMMQRDSWEDIFELLFWGRTSAGTRQPQFISRDWHGVPGQVDAAMAGRIYISGMAPRPSLAKKQRFRHRNRKGYRSQRGHSRGRNQNSRRPSRATWLSLFSSEESNLGANNYDDYRMDWLVPATCEPIQSVFFFSGDKYYRVNLRTRRVDTVDPPYPRSIAQYWLGCPAPGHL

What was measured:
[1] = test system: stem cells; experiment: Adhesion of cells to plates coated with different extracellular matrix proteins during differentiation; type: cell-based, human; settings: for adherence of seeding stem cells to the ECM to start differentiation: FIG. 11; for attachment of cells to the plate in early differentiation stages: stage 1 and 2, ECM protein used alone; for time at which cells came off the plate: stage/day of protocol (s = stage, d = day)
Procedure: (§1) Experiment goal: test if our SC-β cell differentiation method works with different extracellular matrix proteins. Stem cells were propagated on Matrigel as normal. Cells were plated on the different ECMs when seeding the differentiations. For the combinations of laminin 111 and collagen IV, the total protein concentration was kept the same. The ratio of these was changed from 3:1, 1:1, and 1:3. Some of the ECMs induced the cells to form clusters on the plate in stage 6, so some clusters were scrapped off instead of aggregating them for comparison. The differentiation protocol utilized was previously published (Hogrebe et al Nature Biotechnology 2020; Hogrebe et al Nature Protocols 2021; and WO 2019/222487) and modified to include different ECM proteins.

[2] = test system: human pluripotent stem cells; experiment: SC-β cell differentiation on different extracellular matrix proteins; type: cell-based; settings: for outcome of differentiation of stem cells to SC-β cells: cells plated on the ECM when seeding the differentiation
Procedure: as §1

Molecule | adherence of seeding stem cells to the ECM to start differentiation [1] | attachment of cells to the plate in early differentiation stages [1] | attachment of cells to the plate in early differentiation stages ([1]; listed as collagen I) | time at which cells came off the plate [1] | adhesion of endocrine cells to the plate ([1]; stage 6) | outcome of differentiation of stem cells to SC-β cells [2] | cell types obtained ([2]; differentiations done on vitronectin only, FIG. 12)
collagen 1: extracellular matrix protein tested as plate coating for differentiation | weren't as adhesive | detached completely | monolayer of stem cells detaching from the plate | came off on s2d1 |  |  | 
collagen IV: extracellular matrix protein tested as plate coating, alone or combined with laminin 111 |  | detached completely; also recorded: monolayer of stem cells detaching from the plate |  | started coming off on s1d3 | makes the endocrine cells stick to the plate |  | 
fibronectin | do not effectively adhere |  |  |  |  | failed | 
B1 | do effectively adhere |  |  |  |  | failed | a lot of off-target cell types and no endocrine cells
